Results on 51 compounds are retold here after patent US10844051B2, “Substituted oxazoles for the treatment of cancer” (THE ROYAL INSTITUTION FOR THE ADCANCEMENT OF …, priority 2015, dated 2020).

The structures appear in SMILES notation.

In the first test the test system is hSTING and/or mSTING. Briefly: hSTING- or mSTING-dependent ISRE-luc reporter assay in 293T cells. It is filed as cell-based. The note with it: 24 hours. The procedure: ISRE-luc (reporter), pRL-TK (internal control) and hSTING- or mSTING-expressing plasmids were transiently transfected into 293T cells. Cells were exposed to DMSO vehicle control or compounds for 24 hours. Experiments were done in triplicate.
In general terms: Reporter assays use an easily measured gene product as a stand-in for the process of interest.
Regarding `Fc1cccc(-c2nc(CN3CCC(c4c[nH]c5ccccc45)CC3)[nH]c2-c2cccc(F)c2)c1` [Compound 1137], the “activation of hSTING and/or mSTING in ISRE-luc reporter assay” value (“activation of hSTING and/or mSTING” for short) was “activate hSTING and/or mSTING”.
Regarding `O=[N+]([O-])c1ccccc1S(=O)(=O)N(Cc1ccc2[nH]ccc2c1)Cc1nc(-c2cccc(F)c2)c(-c2cccc(F)c2)[nH]1` [Compound 1040], the “activation of hSTING and/or mSTING” value was “activate hSTING and/or mSTING”.
Still for that read-out and setting: the result for `O=[N+]([O-])c1ccccc1S(=O)(=O)N(CCc1c[nH]c2ccccc12)Cc1nc(-c2ccccc2)c(-c2ccccc2)[nH]1` [Compound 1373] reads “activate hSTING and/or mSTING”; that for `c1ccc(-c2nc(CN3CCC(c4c[nH]c5ccccc45)CC3)oc2-c2ccccc2)cc1` [Compound 1124], “activate hSTING and/or mSTING”.
Same read-out and setting: in the case of `Fc1ccc(CN2CCN(Cc3nc(-c4ccccc4)c(-c4ccccc4)o3)CC2)cc1` [Compound 1288] it was “activate hSTING and/or mSTING”; in that of `O=C(c1ccco1)N1CCN(Cc2nc(-c3ccccc3)c(-c3ccccc3)o2)CC1` [Compound 1126], “activate hSTING and/or mSTING”; in that of `COc1cccc(N2CCN(Cc3nc(-c4ccccc4)c(-c4ccccc4)o3)CC2)c1` [Compound 1142], “activate hSTING and/or mSTING”.
Still for that read-out and setting: in the case of `Fc1ccccc1CN1CCN(Cc2nc(-c3ccccc3)c(-c3ccccc3)o2)CC1` [Compound 1357] it was “activate hSTING and/or mSTING”; in that of `O=C(c1ccccc1)N1CCN(Cc2nc(-c3ccccc3)c(-c3ccccc3)[nH]2)CC1` [Compound 1122], “activate hSTING and/or mSTING”.
`COCCN1CCN(Cc2nc(-c3ccccc3)c(-c3ccccc3)o2)CC1` [Compound 1370]: the “activation of hSTING and/or mSTING” value was “activate hSTING and/or mSTING”.
The same measure, in the same setting: the result for `O=C(c1ccco1)N1CCN(Cc2nc(-c3ccccc3)c(-c3ccccc3)[nH]2)CC1` [Compound 1125] reads “activate hSTING and/or mSTING”.
Still for that read-out and setting: in the case of `Fc1cccc(-c2nc(CNCc3ccc4[nH]ccc4c3)[nH]c2-c2cccc(F)c2)c1` [Compound 1042] it was “activate hSTING and/or mSTING”; in that of `CNC(=O)c1ccc(C2CCN(Cc3nc(-c4cccc(F)c4)c(-c4cccc(F)c4)[nH]3)CC2)cc1` [Compound 1140], “activate hSTING and/or mSTING”; in that of `OC1(c2cccc(C(F)(F)F)c2)CCN(Cc2nc(-c3ccccc3)c(-c3ccccc3)[nH]2)CC1` [Compound 1129], “activate hSTING and/or mSTING”.
Still for that read-out and setting: in the case of `Oc1ccc(N2CCN(Cc3nc(-c4cccc(F)c4)c(-c4cccc(F)c4)[nH]3)CC2)cc1` [Compound 1139] it was “activate hSTING and/or mSTING”; in that of `OC1(c2ccccc2)CCN(Cc2nc(-c3ccccc3)c(-c3ccccc3)o2)CC1` [Compound 1103], “activate hSTING and/or mSTING”; in that of `Clc1ccc(N2CCN(Cc3nc(-c4ccccc4)c(-c4ccccc4)[nH]3)CC2)cc1Cl` [Compound 1098], “activate hSTING and/or mSTING”.
Consider `C=CCN(CCc1c[nH]c2ccccc12)Cc1nc(-c2ccccc2)c(-c2ccccc2)o1` [Compound 1372], for which the “activation of hSTING and/or mSTING” value is “activate hSTING and/or mSTING”.
Regarding `COc1ccc(CN2CCN(Cc3nc(-c4ccccc4)c(-c4ccccc4)o3)CC2)cc1` [Compound 1287], the “activation of hSTING and/or mSTING” value was “activate hSTING and/or mSTING”.
On the same count and under the same terms, in the case of `c1ccc(-c2nc(CNCCc3c[nH]c4ccccc34)[nH]c2-c2ccccc2)cc1` [Compound 1369] it was “activate hSTING and/or mSTING”; in that of `N#Cc1cccc(CN2CCN(Cc3nc(-c4ccccc4)c(-c4ccccc4)o3)CC2)c1` [Compound 1360], “activate hSTING and/or mSTING”; in that of `N#Cc1ccc(N2CCN(Cc3nc(-c4cccc(F)c4)c(-c4cccc(F)c4)[nH]3)CC2)cc1` [Compound 1104], “activate hSTING and/or mSTING”.
The same measure, in the same setting: in the case of `COc1ccc2[nH]cc(CCN(Cc3nc(-c4cccc(F)c4)c(-c4cccc(F)c4)[nH]3)S(=O)(=O)c3ccccc3[N+](=O)[O-])c2c1` [Compound 1039] it was “activate hSTING and/or mSTING”; in that of `N#Cc1ccc(N2CCN(Cc3nc(-c4ccccc4)c(-c4ccccc4)[nH]3)CC2)cc1` [Compound 1120], “activate hSTING and/or mSTING”.
On the same count and under the same terms, in the case of `Cn1cc(CNCc2nc(-c3cccc(F)c3)c(-c3cccc(F)c3)[nH]2)c2ccccc21` [Compound 1096] it was “activate hSTING and/or mSTING”.
In the case of `COc1cccc(CN2CCN(Cc3nc(-c4ccccc4)c(-c4ccccc4)o3)CC2)c1` [Compound 1289], the “activation of hSTING and/or mSTING” value is recorded as “activate hSTING and/or mSTING”.
Still for that read-out and setting: in the case of `O=C(c1ccccc1)N1CCN(Cc2nc(-c3ccccc3)c(-c3ccccc3)o2)CC1` [Compound 1123] it was “activate hSTING and/or mSTING”; in that of `Fc1cccc(CN2CCN(Cc3nc(-c4ccccc4)c(-c4ccccc4)o3)CC2)c1` [Compound 1286], “activate hSTING and/or mSTING”.
On to `OC1(c2cccc(C(F)(F)F)c2)CCN(Cc2nc(-c3ccccc3)c(-c3ccccc3)o2)CC1` [Compound 1127], for which the “activation of hSTING and/or mSTING” value is recorded as “activate hSTING and/or mSTING”.
On the same count and under the same terms, in the case of `c1ccc(-c2nc(CN3CCN(Cc4ccccn4)CC3)oc2-c2ccccc2)cc1` [Compound 1285] it was “activate hSTING and/or mSTING”; in that of `N#CCN(CCc1c[nH]c2ccccc12)Cc1nc(-c2ccccc2)c(-c2ccccc2)o1` [Compound 1188], “activate hSTING and/or mSTING”.
On to `COc1ccc2[nH]cc(CCNCc3nc(-c4cccc(F)c4)c(-c4cccc(F)c4)[nH]3)c2c1` [Compound 1041], for which the “activation of hSTING and/or mSTING” value is given as “activate hSTING and/or mSTING”.
Same read-out and setting: the result for `c1ccc(-c2nc(CN3CCN(c4ccccc4)CC3)[nH]c2-c2ccccc2)cc1` [Compound 1099] reads “activate hSTING and/or mSTING”.
For the compound `Cc1cccnc1CN1CCN(Cc2nc(-c3ccccc3)c(-c3ccccc3)o2)CC1` [Compound 1366], the “activation of hSTING and/or mSTING” value is “activate hSTING and/or mSTING”.
On the same count and under the same terms, the result for `COc1cccc(N2CCN(Cc3nc(-c4ccccc4)c(-c4ccccc4)[nH]3)CC2)c1` [Compound 1143] reads “activate hSTING and/or mSTING”; that for `Brc1ccc(N2CCN(Cc3nc(-c4ccccc4)c(-c4ccccc4)o3)CC2)cc1` [Compound 1097], “activate hSTING and/or mSTING”; that for `N#Cc1ccccc1CN1CCN(Cc2nc(-c3ccccc3)c(-c3ccccc3)o2)CC1` [Compound 1364], “activate hSTING and/or mSTING”.

The test is the same for the next values; noted with them: 24 hours, 10 μM.
Turning to `FC(F)(F)c1cccc(CCc2nc(-c3ccccc3)c(-c3ccccc3)o2)c1` [Compound 1011], the “activation of hSTING and/or mSTING” value was “activate hSTING and/or mSting”.
Still for that read-out and setting: the result for `Fc1cccc(-c2nc(/C=C/c3ccsc3)oc2-c2cccc(F)c2)c1` [Compound 1036] reads “activate hSTING and/or mSting”; that for `Fc1cccc(-c2nc(/C=C/c3ccsc3)[nH]c2-c2cccc(F)c2)c1` [Compound 1037], “activate hSTING and/or mSting”; that for `O=C(c1cccc(F)c1)N1CCN(Cc2nc(-c3cccc(F)c3)c(-c3cccc(F)c3)[nH]2)CC1` [Compound 1177], “activate hSTING and/or mSTING”.
Still for that read-out and setting: the result for `Fc1cccc(-c2nc(/C=C/c3ccoc3)oc2-c2cccc(F)c2)c1` [Compound 1035] reads “activate hSTING and/or mSting”; that for `Fc1cccc(-c2nc(CN3CCC(c4cccc(C(F)(F)F)c4)CC3)[nH]c2-c2cccc(F)c2)c1` [Compound 1173], “activate hSTING and/or mSTING”; that for `Fc1cccc(-c2nc(/C=C/c3cccs3)oc2-c2cccc(F)c2)c1` [Compound 1013], “activate hSTING and/or mSting”.
Take `Fc1cccc(-c2nc(/C=C/c3cc(C(F)(F)F)cc(C(F)(F)F)c3)oc2-c2cccc(F)c2)c1` [Compound 1012]: the “activation of hSTING and/or mSTING” value is given as “activate hSTING and/or mSting”.
Regarding `Fc1cccc(-c2nc(CN3CCN(c4ccc(Br)cc4)CC3)[nH]c2-c2cccc(F)c2)c1` [Compound 1174], the “activation of hSTING and/or mSTING” value is listed as “activate hSTING and/or mSTING”.
On to `COc1cccc(-c2nc(CCc3cc(C(F)(F)F)cc(C(F)(F)F)c3)oc2-c2cccc(OC)c2)c1` [Compound 1033], for which the “activation of hSTING and/or mSTING” value is “activate hSTING and/or mSting”.

Staying with this test, now noted: 24 hours, 20 μM.
`Oc1cccc(N2CCN(Cc3nc(-c4ccccc4)c(-c4ccccc4)o3)CC2)c1` [Compound 1182]: the “activation of hSTING and/or mSTING” value is “activate hSTING and/or mSTING”.
The same measure, in the same setting: in the case of `Oc1cccc(N2CCN(Cc3nc(-c4cccc(F)c4)c(-c4cccc(F)c4)[nH]3)CC2)c1` [Compound 1181] it was “activate hSTING and/or mSTING”.
As for `Oc1ccccc1N1CCN(Cc2nc(-c3cccc(F)c3)c(-c3cccc(F)c3)[nH]2)CC1` [Compound 1183], the “activation of hSTING and/or mSTING” value was “activate hSTING and/or mSTING”.
On the same count and under the same terms, in the case of `c1ccc(-c2nc(CN3CCN(c4ccccn4)CC3)oc2-c2ccccc2)cc1` [Compound 1227] it was “activate hSTING and/or mSTING”.
